From US10214519B2, “Phosphatidylinositol 3-kinase inhibitors” (Gilead Sciences, Inc., priority 2016, dated 2019)

Biological target: PI3Kβ (Homo sapiens (Human), UniProt P42338)
Assay: PI3K isoform TR-FRET enzymatic assay (PI3Kβ)
Format: biochemical
Conditions: 2× Km ATP, 30 minutes at 25° C.
Procedure, shortened: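 Heterodimeric recombinant PI3Kβ was incubated with compound 30 minutes at 25° C. Product was detected by TR-FRET competition with 10 nM labeled PIP3 for 35 nM Eu-GRP-1 PH domain after EDTA stop. Data were normalized to 1 μM wortmannin and DMSO, and IC50 was taken from a four-parameter fit.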

Chain of PI3Kβ (P42338 whole entry, canonical isoform): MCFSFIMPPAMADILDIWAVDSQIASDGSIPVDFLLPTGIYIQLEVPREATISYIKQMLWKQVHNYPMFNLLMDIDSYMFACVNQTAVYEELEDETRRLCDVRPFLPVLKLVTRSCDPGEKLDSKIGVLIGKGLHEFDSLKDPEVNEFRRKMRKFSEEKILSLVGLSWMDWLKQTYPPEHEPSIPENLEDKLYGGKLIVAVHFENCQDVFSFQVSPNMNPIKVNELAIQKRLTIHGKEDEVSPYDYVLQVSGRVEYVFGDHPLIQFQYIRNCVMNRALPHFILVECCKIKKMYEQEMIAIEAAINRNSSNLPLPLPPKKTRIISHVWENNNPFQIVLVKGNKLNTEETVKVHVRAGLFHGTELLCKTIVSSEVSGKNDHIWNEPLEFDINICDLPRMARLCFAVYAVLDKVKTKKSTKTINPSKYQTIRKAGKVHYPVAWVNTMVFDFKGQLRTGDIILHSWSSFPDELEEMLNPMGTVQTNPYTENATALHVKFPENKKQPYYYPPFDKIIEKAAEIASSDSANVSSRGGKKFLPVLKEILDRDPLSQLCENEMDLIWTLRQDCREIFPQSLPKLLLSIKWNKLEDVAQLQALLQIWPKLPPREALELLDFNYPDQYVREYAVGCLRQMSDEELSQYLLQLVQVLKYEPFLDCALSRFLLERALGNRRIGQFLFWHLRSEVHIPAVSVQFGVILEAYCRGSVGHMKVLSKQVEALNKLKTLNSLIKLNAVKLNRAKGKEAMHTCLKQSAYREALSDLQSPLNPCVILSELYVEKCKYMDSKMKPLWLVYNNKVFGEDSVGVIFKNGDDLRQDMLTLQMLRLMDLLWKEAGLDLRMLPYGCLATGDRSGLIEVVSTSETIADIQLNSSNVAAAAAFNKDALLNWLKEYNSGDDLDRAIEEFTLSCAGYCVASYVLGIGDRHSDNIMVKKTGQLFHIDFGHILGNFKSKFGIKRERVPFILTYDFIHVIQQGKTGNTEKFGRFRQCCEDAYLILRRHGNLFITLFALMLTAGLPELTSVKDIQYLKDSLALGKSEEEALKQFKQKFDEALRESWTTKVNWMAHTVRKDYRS
Chain of PI3Kβ (P27986 whole entry partner, canonical isoform): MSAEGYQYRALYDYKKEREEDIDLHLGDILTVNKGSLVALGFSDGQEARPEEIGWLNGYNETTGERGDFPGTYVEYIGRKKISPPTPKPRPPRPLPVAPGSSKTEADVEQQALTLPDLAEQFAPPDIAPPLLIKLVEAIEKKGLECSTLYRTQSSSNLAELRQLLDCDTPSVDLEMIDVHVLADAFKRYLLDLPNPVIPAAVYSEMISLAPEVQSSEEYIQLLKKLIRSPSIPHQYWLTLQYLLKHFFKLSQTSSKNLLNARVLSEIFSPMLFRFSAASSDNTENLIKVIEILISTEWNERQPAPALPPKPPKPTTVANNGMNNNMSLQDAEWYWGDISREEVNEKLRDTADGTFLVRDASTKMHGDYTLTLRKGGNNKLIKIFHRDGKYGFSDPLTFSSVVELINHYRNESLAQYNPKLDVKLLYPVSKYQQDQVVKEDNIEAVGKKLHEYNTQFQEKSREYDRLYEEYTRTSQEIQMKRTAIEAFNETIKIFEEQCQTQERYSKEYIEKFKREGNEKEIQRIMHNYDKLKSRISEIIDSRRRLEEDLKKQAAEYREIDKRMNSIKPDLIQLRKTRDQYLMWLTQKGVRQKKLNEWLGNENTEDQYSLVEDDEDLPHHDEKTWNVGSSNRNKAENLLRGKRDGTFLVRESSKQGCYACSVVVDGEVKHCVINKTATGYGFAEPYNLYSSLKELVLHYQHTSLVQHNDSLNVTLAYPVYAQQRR

| IC50 [nM] | Compound |
| --- | --- |
| 4 | FC(F)c1cc(-n2cnc3c(-c4nnc[nH]4)cc(N4CCOCC4)cc32)c2cccc(Cl)c2n1 [Example 88, 4-[3-[8-chloro-2-(difluoromethyl)quinolin-4-yl]-7-(4H-1,2,4-triazol-3-yl)benzimidazol-5-yl]morpholine] |
| 12 | Cc1nc2c(-c3nnc[nH]3)cc(N3CCOCC3)cc2n1-c1ccnc2c(C#N)cccc12 [Example 89, 4-[2-methyl-6-morpholin-4-yl-4-(4H-1,2,4-triazol-3-yl)benzimidazol-1-yl]quinoline-8-carbonitrile] |
| 11 | Cc1nc2c(-c3nnc[nH]3)cc(N3CCOCC3)cc2n1-c1ccnc2cc(F)ccc12 [Example 90, 4-[3-(7-fluoroquinolin-4-yl)-2-methyl-7-(4H-1,2,4-triazol-3-yl)benzimidazol-5-yl]morpholine] |
| 19 | Cc1nc2c(-c3nnc[nH]3)cc(N3CCOCC3)c(F)c2n1-c1ccnc2c(Cl)cccc12 [Example 91, 4-[3-(8-chloroquinolin-4-yl)-4-fluoro-2-methyl-7-(4H-1,2,4-triazol-3-yl)benzimidazol-5-yl]morpholine] |
| 46 | Cc1nnc(-c2cc(N3CCOCC3)cc3c2nc(C)n3-c2ccnc3c(C(F)F)cccc23)[nH]1 [Example 92, 4-[3-[8-(difluoromethyl)quinolin-4-yl]-2-methyl-7-(5-methyl-4H-1,2,4-triazol-3-yl)benzimidazol-5-yl]morpholine] |
| 290 | Cc1nnc(-c2cc(N3CCOCC3)cc3c2nc(C)n3-c2ccnc3cccc(C)c23)[nH]1 [Example 93, 4-[2-methyl-3-(5-methylquinolin-4-yl)-7-(5-methyl-4H-1,2,4-triazol-3-yl)benzimidazol-5-yl]morpholine] |
| 26 | Cc1nnc(-c2cc(N3CCOCC3)cc3c2nc(C)n3-c2ccnc3c(Cl)ccc(F)c23)[nH]1 [Example 94, 4-[3-(8-chloro-5-fluoroquinolin-4-yl)-2-methyl-7-(5-methyl-4H-1,2,4-triazol-3-yl)benzimidazol-5-yl]morpholine] |
| 6 | Fc1cccc2c(-n3cnc4c(-c5nnc[nH]5)cc(N5CCOCC5)cc43)ccnc12 [Example 95, 4-[3-(8-fluoroquinolin-4-yl)-7-(4H-1,2,4-triazol-3-yl)benzimidazol-5-yl]morpholine] |
| 24 | Fc1ccc(Cl)c2c(-n3cnc4c(-c5nnc[nH]5)cc(N5CCOCC5)cc43)ccnc12 [Example 96, 4-[3-(5-chloro-8-fluoroquinolin-4-yl)-7-(4H-1,2,4-triazol-3-yl)benzimidazol-5-yl]morpholine] |
| 12 | Cc1nc2c(-c3nnc[nH]3)cc(N3CCOCC3)cc2n1-c1c(Cl)cnc2c(Cl)cccc12 [Example 97, 4-[3-(3,8-dichloroquinolin-4-yl)-2-methyl-7-(4H-1,2,4-triazol-3-yl)benzimidazol-5-yl]morpholine] |
| 13 | CCc1nc2c(-c3nnc[nH]3)cc(N3CCOCC3)cc2n1-c1c(Cl)cnc2c(Cl)cccc12 [Example 98, 4-[3-(3,8-dichloroquinolin-4-yl)-2-ethyl-7-(4H-1,2,4-triazol-3-yl)benzimidazol-5-yl]morpholine] |
| 33 | Cc1nc2c(-c3nnc[nH]3)cc(N3CCOC[C@@H]3C)cc2n1-c1ccnc2c(Cl)cccc12 [Example 99, (3S)-4-[3-(8-chloroquinolin-4-yl)-2-methyl-7-(4H-1,2,4-triazol-3-yl)benzimidazol-5-yl]-3-methylmorpholine] |
| 43 | Cc1nc2c(-c3nnc[nH]3)cc(N3CCOC[C@H]3C)cc2n1-c1ccnc2c(Cl)cccc12 [Example 100, (3R)-4-[3-(8-chloroquinolin-4-yl)-2-methyl-7-(4H-1,2,4-triazol-3-yl)benzimidazol-5-yl]-3-methylmorpholine] |
| 7 | Cc1nc2c(-c3nnc[nH]3)cc(N3CCOCC3)cc2n1-c1ccnc2c(Cl)cccc12 [Example 101, 4-[3-(8-chloroquinolin-4-yl)-2-methyl-7-(4H-1,2,4-triazol-3-yl)benzimidazol-5-yl]morpholine] |
| 21 | Clc1cccc2c(-n3c(C4CCCO4)nc4c(-c5nnc[nH]5)cc(N5CCOCC5)cc43)ccnc12 (centres unmarked) [Example 102, 4-[3-(8-chloroquinolin-4-yl)-2-(oxolan-2-yl)-7-(4H-1,2,4-triazol-3-yl)benzimidazol-5-yl]morpholine] |
| 9 | Cc1nc2c(-c3nnc[nH]3)cc(N3CCOCC3)cc2n1-c1cc(-c2cscn2)nc2ccccc12 [Example 103, 4-(2-methyl-1-(2-(thiazol-4-yl)quinolin-4-yl)-4-(4H-1,2,4-triazol-3-yl)-1H-benzo[d]imidazol-6-yl)morpholine] |
| 84 | Cc1nnc(-c2cc(N3CCOCC3)cc3c2nc(C)n3-c2cc(-c3cscn3)nc3ccccc23)[nH]1 [Example 104, 4-(2-methyl-4-(5-methyl-4H-1,2,4-triazol-3-yl)-1-(2-(thiazol-4-yl)quinolin-4-yl)-1H-benzo[d]imidazol-6-yl)morpholine] |
| 10 | CCc1nc2c(-c3nnc[nH]3)cc(N3CCOCC3)cc2n1-c1ccnc2c(Cl)cccc12 [Example 105, 4-[3-(8-chloroquinolin-4-yl)-2-ethyl-7-(4H-1,2,4-triazol-3-yl)benzimidazol-5-yl]morpholine] |

| IC50 [nM] | Compound |
| --- | --- |
| 17 | Cc1nc2c(-c3nnc[nH]3)cc(N3CCOCC3)cc2n1-c1ccnc2ccccc12 [Example 106, 4-[2-methyl-3-quinolin-4-yl-7-(4H-1,2,4-triazol-3-yl)benzimidazol-5-yl]morpholine] |
| 29 | CCc1nc2c(-c3nnc[nH]3)cc(N3CCOCC3)cc2n1-c1ccnc2ccccc12 [Example 107, 4-[2-ethyl-3-quinolin-4-yl-7-(4H-1,2,4-triazol-3-yl)benzimidazol-5-yl]morpholine] |
| 26 | Cc1nc2c(-c3nnc[nH]3)cc(N3CCOCC3)cc2n1-c1ccnc2c(C(F)(F)F)cccc12 [Example 108, 4-[2-methyl-7-(4H-1,2,4-triazol-3-yl)-3-[8-(trifluoromethyl)quinolin-4-yl]benzimidazol-5-yl]morpholine] |
| 13 | Cc1cccc2c(-n3c(C)nc4c(-c5nnc[nH]5)cc(N5CCOCC5)cc43)ccnc12 [Example 109, 4-[2-methyl-3-(8-methylquinolin-4-yl)-7-(4H-1,2,4-triazol-3-yl)benzimidazol-5-yl]morpholine] |
| 19 | Clc1cccc2c(-n3c(C4CC4)nc4c(-c5nnc[nH]5)cc(N5CCOCC5)cc43)ccnc12 [Example 110, 4-[3-(8-chloroquinolin-4-yl)-2-cyclopropyl-7-(4H-1,2,4-triazol-3-yl)benzimidazol-5-yl]morpholine] |
| 3 | Clc1cccc2c(-n3cnc4c(-c5nnc[nH]5)cc(N5CCOCC5)cc43)ccnc12 [Example 111, 4-[3-(8-chloroquinolin-4-yl)-7-(4H-1,2,4-triazol-3-yl)benzimidazol-5-yl]morpholine] |
| 17 | Clc1cccc2c(-n3c(-c4cnco4)nc4c(-c5nnc[nH]5)cc(N5CCOCC5)cc43)ccnc12 [Example 112, 4-[3-(8-chloroquinolin-4-yl)-2-(1,3-oxazol-5-yl)-7-(4H-1,2,4-triazol-3-yl)benzimidazol-5-yl]morpholine] |
| 17 | Clc1cccc2c(-n3c(C4COC4)nc4c(-c5nnc[nH]5)cc(N5CCOCC5)cc43)ccnc12 [Example 113, 4-[3-(8-chloroquinolin-4-yl)-2-(oxetan-3-yl)-7-(4H-1,2,4-triazol-3-yl)benzimidazol-5-yl]morpholine] |
| 12 | Cc1nc2c(-c3nnc[nH]3)cc(N3CCOCC3)cc2n1-c1ccnc2c(F)ccc(F)c12 [Example 114, 4-[3-(5,8-difluoroquinolin-4-yl)-2-methyl-7-(4H-1,2,4-triazol-3-yl)benzimidazol-5-yl]morpholine] |
| 14 | Clc1cccc2c(-n3c(-c4ccccn4)nc4c(-c5nnc[nH]5)cc(N5CCOCC5)cc43)ccnc12 [Example 115, 4-[3-(8-chloroquinolin-4-yl)-2-pyridin-2-yl-7-(4H-1,2,4-triazol-3-yl)benzimidazol-5-yl]morpholine] |
| 21 | COCCc1nc2c(-c3nnc[nH]3)cc(N3CCOCC3)cc2n1-c1ccnc2c(Cl)cccc12 [Example 116, 4-[3-(8-chloroquinolin-4-yl)-2-(2-methoxyethyl)-7-(4H-1,2,4-triazol-3-yl)benzimidazol-5-yl]morpholine] |
| 15 | Clc1cccc2c(-n3c(-c4ccn[nH]4)nc4c(-c5nnc[nH]5)cc(N5CCOCC5)cc43)ccnc12 [Example 117, 4-[3-(8-chloroquinolin-4-yl)-2-(1H-pyrazol-5-yl)-7-(4H-1,2,4-triazol-3-yl)benzimidazol-5-yl]morpholine] |
| 52 | Clc1cccc2c(-n3c(-c4cnsc4)nc4c(-c5nnc[nH]5)cc(N5CCOCC5)cc43)ccnc12 [Example 118, 4-[3-(8-chloroquinolin-4-yl)-2-(1,2-thiazol-4-yl)-7-(4H-1,2,4-triazol-3-yl)benzimidazol-5-yl]morpholine] |
| 24 | Clc1cccc2c(-n3c(-c4cncs4)nc4c(-c5nnc[nH]5)cc(N5CCOCC5)cc43)ccnc12 [Example 119, 4-[3-(8-chloroquinolin-4-yl)-2-(1,3-thiazol-5-yl)-7-(4H-1,2,4-triazol-3-yl)benzimidazol-5-yl]morpholine] |
| 27 | Clc1cccc2c(-n3c(-c4cn[nH]c4)nc4c(-c5nnc[nH]5)cc(N5CCOCC5)cc43)ccnc12 [Example 120, 4-[3-(8-chloroquinolin-4-yl)-2-(1H-pyrazol-4-yl)-7-(4H-1,2,4-triazol-3-yl)benzimidazol-5-yl]morpholine] |
| 44 | Cn1cc(-c2nc3c(-c4nnc[nH]4)cc(N4CCOCC4)cc3n2-c2ccnc3c(Cl)cccc23)cn1 [Example 121, 4-[3-(8-chloroquinolin-4-yl)-2-(1-methylpyrazol-4-yl)-7-(4H-1,2,4-triazol-3-yl)benzimidazol-5-yl]morpholine] |
| 110 | Fc1ccc(F)c2c(-n3c(C4COC4)nc4c(-c5nnc[nH]5)cc(N5CCOCC5)cc43)ccnc12 [Example 123, 4-[3-(5,8-difluoroquinolin-4-yl)-2-(oxetan-3-yl)-7-(4H-1,2,4-triazol-3-yl)benzimidazol-5-yl]morpholine] |
